{"source": "patent US4120810A", "about": "“Paint remover with improved safety characteristics” (priority 1976, dated 1978)", "key": {"[1]": {"test": "Paint removal comparison of NMP/Panasol AN-1 mixtures with the pure components (Example 1)", "procedure": "Various mixtures of Panasol AN-1 and NMP were compared against the paint removal efficiency of the pure components. The following surfaces were tested: alkyd enamel, polyurethane varnish, two-part epoxy enamel, polyurethane marine enamel, latex enamel, and a surface with seven layers of aged alkyd enamels.\nThe straight line drawn at a 45° angle represents the expected effectiveness, based on the state of the art with an averaging of the properties of the pure components (R. S. Downing, ibid.)."}, "[2]": {"conditions": "cited from earlier work"}, "[3]": {"conditions": "75° F.; cited from earlier work"}, "[4]": {"test": "Paint removal, NMP and benzyl alcohol (Example 9)", "conditions": "alone", "from_the_text": "However, its mixture with NMP had substantially less effectiveness than either pure component."}, "[5]": {"test": "Minutes to complete bubbling / softening of finishes (Example 5)", "procedure": "A 50 mole percent mixture of diacetone alcohol as the first chemical and Panasol AN-1 as the second chemical was compared against pure diacetone alcohol on a variety of surfaces.\nLatex enamel was also tested."}, "[6]": {"test": "Deglosser test: adhesion of latex enamel to wiped alkyd enamel (Example 6)", "conditions": "after wiping off cooking oil with saturated paper towel, painting and drying", "procedure": "The mixture of Example 5 and straight diacetone alcohol were tested as deglossers, wherein an alkyd surface was covered with cooking oil. Then a paper towel saturated with the liquid was used to wipe off both the oil and the surface sheen of the alkyd enamel. This was followed by painting with latex enamel. […] Said commercially available deglossers contained such chemicals as methylene chloride, alcohols, and petroleum distillates."}, "[7]": {"test": "Paint stripping, xylene and diacetone alcohol mixture (Example 7)", "from_the_text": "A 50 mole percent mixture of xylene and diacetone alcohol was compared against the pure components on a number of substrates for use as paint strippers. […] On an alkyd sash and trim paint the xylene was ineffective."}, "[8]": {"test": "Paint removal, N-vinyl 2-pyrrolidone mixtures and pyrrolidone 2 (Example 4)", "conditions": "variety of surfaces, as in Example 1", "procedure": "N-vinyl 2-pyrrolidone was substituted for NMP in the mixtures prepared in Example 1. They were tested as a paint remover on a variety of surfaces, also as in Example 1."}}, "note": "Like-named read-outs stand apart in the source and are kept apart here."}
{"molecule": "CN1CCCC1=O", "note": "[NMP, n-methyl 2 pyrrolidone]", "values": [{"measurement": "removal time", "setting": "[1]; epoxy", "result": "ten"}, {"measurement": "paint removal effectiveness", "setting": "[1]; old lead based paint", "result": "equally effective"}, {"measurement": "paint removal effectiveness", "setting": "[1]; one surface with a modern coating", "result": "would not succumb to NMP"}, {"measurement": "removal time", "setting": "[1]; polyurethane enamel", "result": 5, "unit": "min"}]}
{"molecule": "CC(C)=O", "note": "[Acetone]", "values": [{"measurement": "toxicity / health effects in words", "setting": "[2]; background literature", "result": "low toxicity"}]}
{"molecule": "ClCCl", "note": "[Methylene chloride]", "values": [{"measurement": "vapor pressure", "setting": "[3]", "result": 400, "unit": "mm Hg"}, {"measurement": "metabolism", "setting": "[2]; background literature", "result": "metabolized to carbon monoxide"}]}
{"molecule": "OCc1ccccc1", "note": "[benzyl alcohol]", "values": [{"measurement": "paint removal ability", "setting": "[4]", "result": "some ability to soften paint and remove it"}]}
{"molecule": "CC(=O)CC(C)(C)O", "note": "[Diacetone Alcohol, diacetone alcohol]", "values": [{"measurement": "Minutes to Complete Bubbling", "setting": "[5]; Acrylic enamel", "result": 32, "unit": "min"}, {"measurement": "Minutes to Complete Bubbling", "setting": "[5]; Alkyd enamel", "result": 40, "unit": "min"}, {"measurement": "time to softening", "setting": "[5]; Latex enamel (does not bubble)", "result": 4, "unit": "min"}, {"measurement": "Minutes to Complete Bubbling", "setting": "[5]; Polyurethane varnish", "result": 36, "unit": "min"}, {"measurement": "softening and bubbling", "setting": "[5]; alkyd and epoxy surfaces", "result": "would soften alkyd and epoxy surfaces, permitting scraping but would not bubble them in a reasonable time"}, {"measurement": "Minutes to Complete Bubbling", "setting": "[5]; polyurethane enamel", "result": 17, "unit": "min"}, {"measurement": "adhesion of the latex enamel to the alkyd enamel", "setting": "[6]", "result": "excellent"}, {"measurement": "paint stripping effectiveness", "setting": "[7]; alkyd sash and trim paint", "result": "effective but very slow"}, {"measurement": "paint stripping effectiveness", "setting": "[7]; brushing lacquer", "result": "equally effective"}]}
{"molecule": "c1ccccc1", "note": "[benzene]", "values": [{"measurement": "toxicity / health effects in words", "setting": "[2]; background literature", "result": "induces severe chronic toxic effects, causing anemia and damaging the bone marrow"}]}
{"molecule": "xylene", "values": [{"measurement": "paint stripping effectiveness", "setting": "[7]; alkyd sash and trim paint", "result": "ineffective"}, {"measurement": "paint stripping effectiveness", "setting": "[7]; brushing lacquer", "result": "ineffective"}, {"measurement": "paint stripping effectiveness", "setting": "[7]; latex flat paint", "result": "very slow acting"}]}
{"molecule": "CO", "note": "[Methanol]", "values": [{"measurement": "elimination", "setting": "[2]; Sax, Dangerous Properties of Industrial Materials", "result": "slowness with which it is eliminated"}, {"measurement": "toxicity / health effects in words", "setting": "[2]; background literature", "result": "prolongs the period of cardiovascular stress caused by the methylene chloride"}, {"measurement": "toxicity / health effects in words", "setting": "[2]; background literature, listed as methanol", "result": "Severe exposures may cause dizziness, unconsciousness, sighing respiration, cardiac depression and eventually death"}]}
{"molecule": "O=C1CCCN1", "note": "[pyrrolidone 2]", "values": [{"measurement": "paint removal effectiveness", "setting": "[8]", "result": "ineffective as a paint remover"}]}
